Measurements as given in US10091997B2, “Composition for inhibition of insect host sensing” (Vanderbilt University, priority 2010, dated 2018).
Entries after “also recorded” stand apart in the source; their conditions may differ.

Tests used:
AgORco+AgOR10 = assay: plate-based Fluo-4 Ca2+ imaging in stable HEK293 cell lines; design: species or system Anopheles gambiae; conditions: AgORco+AgOR10 HEK293 cells; not seen in control cells
Excerpt: (§1) For transient transfections, ORs were cloned into pCI (Promega) and transfected into Flp-In™ T-REx™293 cell lines (Invitrogen) with Fu GENE6 (Roche). For the creation of stable cell lines, a cell culture expression vector capable of expressing AgORco in conjunction with a conventional OR, pcDNA5/FRT/TO (Invitrogen) was modified to create two individual expression cassettes each under the control of a separate CMV/TetO2 promoter and a BGH poly-adenylation signal. Cells (as above) were transfected with the modified pcDNA5 plasmid along with POG44 (a Flp recombinase expression plasmid) to facilitate site-specific recombination. Stable cell lines were selected using Hygromycin B (Invitrogen). Cells were maintained in DMEM (Invitrogen) supplemented with 10% Tetracycline-free FBS (HyClone) and 15 μg/ml Blasticidin. For fluorometric Ca^2+ measurements, stable lines expressing ORs of interest were seeded at 20,000 cells/well in black wall, poly-lysine coated 384-well cell culture plates (Greiner) and treated with 0.3 μg/μl tetracycline (Sigma) overnight to induce OR expression. Cells were dye-loaded with 1.8 μM Fluo-4 AM (Molecular Probes), 2.5 mM Probenecid (Molecular Probes) in assay buffer (20 mM HEPES, 1×HBSS) for 45 minutes at 37° C. in 5% CO2 prior to each assay. […] Baseline readings were taken for 20 s before automated addition of compound previously diluted in DMSO and assay buffer. […]

HvOR2 = assay: whole-cell patch clamp, HEK cells transiently transfected with HvOR2; type: cell-based, Heliothis virescens; conditions: HEK cells expressing HvOR2, −60 mV
Excerpt: as §1, with “Blasticidin.” for “Blasticidin. For fluorometric Ca^2+ measurements, stable lines expressing ORs of interest were seeded at 20,000 cells/well in black wall, poly-lysine coated 384-well cell culture plates (Greiner) and treated with 0.3 μg/μl tetracycline (Sigma) overnight to induce OR expression. Cells were dye-loaded with 1.8 μM Fluo-4 AM (Molecular Probes), 2.5 mM Probenecid (Molecular Probes) in assay buffer (20 mM HEPES, 1×HBSS) for 45 minutes at 37° C. in 5% CO2 prior to each assay.”
Currents from OR-expressing HEK293 cells were amplified with an Axopatch 200b Amplifier (Axon Instruments) and digitized through a Digidata 1322A (Axon Instruments). Electrophysiological data was recorded and analyzed using pCLAMP 10 (Axon Instruments). […]

[1] = target: T1, rat transient receptor potential vanilloid 1 (rTRPV1) (Rattus norvegicus, UniProt O35433); assay: whole-cell patch clamp, HEK cells stably expressing rTRPV1; type: cell-based
T1 construct: expressed in transfected cells
T1 sequence (O35433 whole entry): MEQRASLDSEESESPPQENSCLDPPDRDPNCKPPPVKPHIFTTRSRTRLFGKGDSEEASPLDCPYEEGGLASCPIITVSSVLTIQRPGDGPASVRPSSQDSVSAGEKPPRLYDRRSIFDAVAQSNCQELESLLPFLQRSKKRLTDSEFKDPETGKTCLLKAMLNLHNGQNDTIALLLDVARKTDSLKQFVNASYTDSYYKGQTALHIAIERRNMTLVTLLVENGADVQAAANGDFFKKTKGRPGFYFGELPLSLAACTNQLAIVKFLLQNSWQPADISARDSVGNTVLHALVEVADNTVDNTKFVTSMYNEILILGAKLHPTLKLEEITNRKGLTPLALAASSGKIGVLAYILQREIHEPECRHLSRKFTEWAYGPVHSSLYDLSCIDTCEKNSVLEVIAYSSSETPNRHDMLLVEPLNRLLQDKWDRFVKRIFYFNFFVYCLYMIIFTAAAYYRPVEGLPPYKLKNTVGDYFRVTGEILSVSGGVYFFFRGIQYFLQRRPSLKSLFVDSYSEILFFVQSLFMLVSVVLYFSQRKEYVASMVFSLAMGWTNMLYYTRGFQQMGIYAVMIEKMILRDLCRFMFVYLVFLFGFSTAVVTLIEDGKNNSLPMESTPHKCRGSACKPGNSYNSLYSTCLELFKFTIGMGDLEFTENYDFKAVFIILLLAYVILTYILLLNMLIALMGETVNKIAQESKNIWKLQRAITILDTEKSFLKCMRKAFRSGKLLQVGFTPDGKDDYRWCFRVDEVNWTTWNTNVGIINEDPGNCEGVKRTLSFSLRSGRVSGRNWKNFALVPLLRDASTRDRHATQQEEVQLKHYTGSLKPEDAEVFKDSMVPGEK
Excerpt: To determine the broad-spectrum specificity of VUAA1, the inventors tested VUAA1 on another non-selective cation channel, transient receptor potential vanilloid receptor 1 (TRPV1) (Caterina, 1997; Bohlen, 2010).

[2] = test system: Un-transfected HEK293 cells; assay: whole-cell patch clamp, control HEK293 cells (un-transfected or GFP alone); type: cell-based, human
Method: (§2) Currents from OR-expressing HEK293 cells were amplified with an Axopatch 200b Amplifier (Axon Instruments) and digitized through a Digidata 1322A (Axon Instruments). Electrophysiological data was recorded and analyzed using pCLAMP 10 (Axon Instruments). Electrodes were fabricated from quartz tubing (Sutter Instruments) and pulled to 4-6 MΩ for whole cell recording. Electrodes were filled with internal solution (120 mM KCl, 30 mM D-glucose, 10 mM HEPES, 2 mM MgCl2, 1.1 mM EGTA, and 0.1 CaCl2 (pH 7.35, 280 mOsm). External (bath) solution contained 130 mM NaCl, 34 mM D-glucose, 10 mM HEPES, 1.5 mM CaCl2, 1.3 mM KH2PO4, and 0.5 MgSO4 (pH 7.35, 300 mOsm). Compounds were diluted in external solution and locally perfused to the recording cell using Perfusion Pencil (Automate Scientific) and controlled by a ValveLink 8.2 controller (Automate Scientific). Whole cell recordings were sampled at 10 kHz and filtered at 5 kHz. Outside-out patches were obtained using 10-15MΩ electrodes pulled from standard glass capillaries (World Precision Instruments) and fire-polished with an MF-830 micro forge (Narishige). Single channel recordings were sampled at 20 kHz. Recordings were reduced to 1 kHz and low-pass filtered at 500 Hz for display and analysis using QuB (SUNY at Buffalo).

AgORco = target: T2, AgORco (Anopheles gambiae, UniProt Q7QCC7); assay: single-channel recording, outside-out patches from AgORco-expressing HEK293 cells; type: cell-based
T2 construct: expressed in transfected cells
T2 sequence (Q7QCC7 1-478): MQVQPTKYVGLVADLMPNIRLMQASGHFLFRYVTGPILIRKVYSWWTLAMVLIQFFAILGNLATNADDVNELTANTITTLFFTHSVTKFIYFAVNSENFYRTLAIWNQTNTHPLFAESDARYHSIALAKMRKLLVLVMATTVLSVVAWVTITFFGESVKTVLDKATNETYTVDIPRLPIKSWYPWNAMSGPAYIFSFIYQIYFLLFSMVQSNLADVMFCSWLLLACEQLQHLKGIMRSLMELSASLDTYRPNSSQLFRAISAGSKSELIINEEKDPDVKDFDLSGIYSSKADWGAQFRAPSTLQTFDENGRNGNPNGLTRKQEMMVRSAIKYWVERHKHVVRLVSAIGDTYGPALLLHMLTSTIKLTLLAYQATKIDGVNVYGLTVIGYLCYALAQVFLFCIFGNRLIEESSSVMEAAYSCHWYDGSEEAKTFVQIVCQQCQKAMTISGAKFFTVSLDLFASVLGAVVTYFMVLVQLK
Method: as §2
In the next set of studies, outside-out membrane patches were excised from AgORco-expressing cells to examine single-channel currents evoked by VUAA1 (FIG. 5A). Here, spontaneous channel opening was observed before VUAA1 stimulation, but with very low probability (Po=0.02) (FIG. 5B). During a 5 s application of VUAA1 channel opening probability increased to Po=0.38 (FIG. 5C). Subsequent to agonist washout, channel opening probability decreased to 0.00 (FIG. 5D). The average unitary current of AgORco was 1.3±0.3 pA (mean±st. dev.) (FIG. 5C, inset) which is consistent with earlier single-channel studies of insect ORs (Sato et al., 2008).

CCc1ccc(NC(=O)CSc2nnc(-c3cccnc3)n2CC)cc1 [VUAA1]
Ca2+ imaging response (AgORco+AgOR10): concentration-dependent responses
whole-cell currents (HvOR2): robust inward currents
whole-cell currents [1]: did not elicit currents
whole-cell currents in GFP alone cells ([2]; HEK cells transfected with GFP alone): no currents
whole-cell currents in control cells ([2]; control / un-transfected HEK293 cells): no responses were observed; also recorded: did not respond
channel opening probability (Po) during application (AgORco; 5 s application of −4.0 log M, outside-out patch held at −60 mV, Po=0.02 before stimulation): 0.38
average unitary current of AgORco (AgORco; during VUAA1 application, mean±st. dev.): 1.3±0.3 pA
channel opening probability after agonist washout (AgORco; outside-out patch, after washout): 0.00
